Tests used:
recombinant (RFP+) cells = assay: Flow cytometry of RFP+ recombinant mammary epithelial subpopulations; format: in vivo, mice; settings: 60 days after weaning
Text: The mouse model used for the cytometry studies was obtained by crossing the conditional model K14Cre; Brca1^F/F; P53^F/F with a model that expresses red fluorescent protein (RFP) under the promoter of the ROSA26 locus. This promoter has a stop codon flanked by LoxP sites that recognize Cre-recombinase. In this way, cells that lose Brca1 (gene) and P53 (gene) due to the action of Cre-recombinase also express RFP and emit fluorescence. The mouse was obtained from the European repository (European mutant mouse archive - EMMA) and was generated by the group of Hans Jörg Fehling from the Institute of Immunology of the Clinical University of Ulm, Germany. For these studies, between 6 and 11 mice from the different study groups were used.
Once the mouse mammary glands were removed, they were incubated in a 50 mL tube containing 9 mL of medium (Gibco DMEM/F-12, #11554546, Fisher Scientific), 500 µL of collagenase and 500 µL of hyaluronidase, at a temperature of 37 °C for 16 hours. After incubation, the aggregated tissue debris was disrupted by pipetting for approximately 30 seconds and the sample was centrifuged for 5 minutes at 350 g at room temperature. Centrifugation was performed, in all examples, using the Eppendorf 5804R refrigerated centrifuge including an A-44 rotor with a radius of 15 cm (width (metric) exterior 634 mm; depth (metric) 550 mm, height (metric) exterior 342 mm). The supernatant was discarded and the pellet formed was resuspended in 2 mL of ACK buffer (Gibco ACK Lysing Buffer, #A10492-01, Fisher Scientific) to lyse the erythrocytes present in the sample. The disaggregated sample was incubated in ACK buffer for 5 minutes at room temperature and subsequently centrifuged at 350 g for 5 minutes. After centrifugation, the supernatant was discarded and 1 mL of trypsin was added at 37 °C. The pellet was resuspended by pipetting for 2 minutes. Next, 10 mL of saline (Gibco HBSS, #14025-092, Fisher Scientific) supplemented with 10 mM HEPES buffer and fetal bovine serum was added and centrifuged for 5 minutes at 350 g at room temperature. Then, the supernatant was discarded and 1 mL of the buffered saline solution (hereinafter HF) and 100 µL of warm DNase were added, carefully pipetted for 1 minute and 5 mL of cold HF was added, to stop action of the DNase. The mixture was filtered through a 40 µm filter and washed with 5 mL of cold HF. It was centrifuged for 5 minutes at 350 g, at a temperature of 4 °C and the supernatant was removed after centrifugation. Subsequently, the mixture was resuspended in 5 mL of cold HF and the mixture was distributed in cytometry tubes with a 35 µm filter. 4/5 of the sample was allocated for immunolabeling and the remaining 1/5 was allocated as an unlabelled control. It was centrifuged for 5 minutes at 1200 rpm (= 20 s^-1) at a temperature of 4 °C and the supernatant was decanted after centrifugation. Subsequently, 52 µL of blocking solution, consisting of 50 µL of HF and 2 µL of anti-CD16/CD32 antibody, were added, gently vortexed and incubated for 10 minutes at 4 °C. Next, 50 µL of immuno-labelling solution made up of the following antibodies: CD45 FITC, CD140 FITC, CD31 FITC, Ter119 FITC, CD49fAPC, CD29 APC-Cy7, CD61 BV421, Sca1 PerCP-Cy5, EpCAM PE- Cy7, e506, was added to the tube intended for staining and 50 µL of HF was added to the control tube. After incubating for 30 minutes and performing a wash, the samples were acquired with the LSR Fortessa X-20 Cell Analyzer cytometer (BD Biosciences). […]

Brca1/P53-deficient mice = assay: Quantification of adipose and ductal tissue areas in the breast (hematoxylin-eosin, ImageJ); format: in vivo; settings: for adipose tissue area: vs untreated lactating multiparous mice, P < 0.001
Text: Subsequently, the same groups of animals indicated were generated and samples were collected from the mammary glands at 1, 3, 7, 30 and 60 days post-gestation (in non-lactating multiparous) or post-weaning (in lactating multiparous, with and without treatment with cabergoline) (N = 5 mice per group at each time studied).
The left inguinal breast of each mouse was embedded in paraffin for further study. Once removed from the animals, the breasts were fixed in 4% paraformaldehyde (Scharlau FO) for 24 hours and, subsequently, they were kept in 70% ethanol at a temperature of 4 °C, until they were processed in the Comparative Molecular Pathology Service of the Salamanca Cancer Research Center. Tissues were dehydrated by three 1-hour incubations in increasing concentrations of ethanol (60%, 80%, and 100%). Three other 1-hour incubations were carried out in xylol, to replace the dehydrating agent with a substance miscible in paraffin. Finally, three other incubations of 1 hour and 20 minutes were carried out with liquid paraffin, after which blocks were made with a mould suitable for the size of the tissue in a paraffin embedding station. When the paraffin blocks were completely cold, 2-µm-thick sections were made using a rotation microtome (Leica RM2255).
Hematoxylin and eosin staining was performed in the Comparative Molecular Pathology Service of the Salamanca Cancer Research Center using a battery of manual staining following the processes: deparaffinization in xylol, rehydration with ethanol at different graduations, hematoxylin and eosin staining, dehydration with ethanol and clearance. Once the process was finished, the samples were mounted by adding a drop of non-aqueous DPX fixative and the coverslip was placed.
Adipose tissue area and ductal area were evaluated using ImageJ free software. The ductal area was defined as the surface occupied by the epithelium of the ducts together with the surrounding fibrous tissue stroma, excluding the area of the tubular lumen. To evaluate the ductal and adipocyte area, 10 photos were taken at 10X magnification of the surface of the mammary gland of each of the study animals, five photos in the distal area and five in the proximal area of the breast. The photos were taken randomly in each of these areas of the samples stained with hematoxylin-eosin, with a Leica DM1000 light microscope. […] In the proximal area, more adipose tissue and less ductal tissue were observed than in the distal area, and vice versa. For this reason, only the values of the distal zone were determined to carry out the analyses.
The quantification was expressed as a percentage of the total area. […]

[1] = KO-RFP+ group, vs nulliparous and lactating multiparous mice
[2] = treated vs untreated multiparous mice

## C=CCN1C[C@H](C(=O)N(CCCN(C)C)C(=O)NCC)C[C@@H]2c3cccc4[nH]cc(c34)C[C@H]21 [cabergoline, 1-[(6-allylergolin-8ß-yl)-carbonyl]-1-[3-(dimethylamino)propyl]-3-ethylurea]
Recombinant (RFP+) cells; [1]
  ductal precursor cells (CD61+) with respect to total recombinant ductal cells: relative increase in precursors
  mature ductal cells (CD61-) with respect to total recombinant ductal cells: relative decrease in mature ductal cells
Recombinant (RFP+) cells; [2]
  ductal cell subpopulations with respect to total recombinant epithelial cells: no statistically significant differences
  proportion of luminal and basal cells within recombinant cells (RFP+): No significant differences
  proportion of luminal ductal cells (Sca1+) within recombinant luminal cells: no significant differences
Brca1/P53-deficient mice; 3 days after weaning
  adipose tissue area: statistically significant increase in adipose tissue
Brca1/P53-deficient mice; 7 days after weaning
  adipose tissue area: statistically significant increase in adipose tissue
Brca1/P53-deficient mice; 30 days post-lactational involution
  ductal area: drastic decrease in ductal area
Brca1/P53-deficient mice; 60 days post-lactational involution
  ductal area (epithelial component): great reduction of the epithelial component

— patent EP4285905A1, “CABERGOLINE OR A PHARMACEUTICALLY ACCEPTABLE SALT OR SOLVATE THEREOF, FOR USE IN PREVENTION OR DELAY OF POST-PREGNANCY BREAST CANCER IN A FEMALE MAMMAL” (Consejo Superior de Investigaciones Cientificas, priority 2022, dated 2023)
